Reference: US20050215544A1, “Methods of treating HIV infection” (priority 2004, published 2005)
pEC50: −log10 of the molar value.

What was measured:
HIV-1 LAI [1] = test: Two-drug combination antiviral assay with Compound 1 (combination indices, Chou and Rideout); type: cell-based; conditions: combination with Compound 1; for Combination Indices at 50% HIV Inhibition (Confidence Interval) / Combination Indices at 75% HIV Inhibition (Confidence Interval) / Combination Indices at 90% HIV Inhibition (Confidence Interval): 95% CI in parenthesis; for Overall Result of two-drug combination: all ratios and inhibition levels
Method: (§1) Virus and cell lines. The T-cell lines, MT-2 and PM-1 were obtained through the AIDS Research and Reference Reagent Program, NIAID, and were contributed by Dr. D. Richman and Dr. R. Gallo, respectively. Both cell lines were cultured in RPMI 1640 medium supplemented with 10% fetal bovine serum, 2 mM L-glutamine and sub-cultured twice a week. The LAI strain of HIV-1 was obtained from the Fred Hutchinson Cancer Research Center, and the Bal strain was from NIH. Both virus stocks were amplified and titered in MT-2 cells (LAI) and PM-1 cells (Bal) using a virus infectivity assay.
(§2) Drug Susceptibility and Cytotoxicity Assays. For drug susceptibility assays, MT-2 cells were infected with HIV-1 LAI (or PM-1 cells with HIV-1 Bal) at an MOI of 0.005, and seeded into 96-well microtiter plates ([…] cells/ml) containing serial dilutions of test compounds. […] Each drug ratio consisted of an array of 3-fold serial dilutions, and was performed in quadruplicate. The plates were incubated at 37° C./5% CO2. The MT-2 cells infected with HIV-1 LAI were incubated for 5 days. On day-five post-infection, 20 μl from each well was harvested and quantitated by a reverse transcriptase (RT) assay, or in samples involving non-nucleoside RT inhibitors, an MTS assay. The PM-1 cells infected with HIV-1 Bal and used for studying the combinations with CCR5 inhibitors were incubated for six days. On day-six post-infection, 20 μl from each well was harvested, 20- and 50-fold diluted and quantitated by p24 assay. Cytotoxicity assays were performed using uninfected cells, exposed to the same drug combinations, and incubated for six days. Cell viability was determined by an MTS assay. The CC50 values were calculated by using the exponential form of the median effect equation as mentioned below for calculation of EC50.
Analysis of Drug Combination Effects. For determination of CI values, drugs were diluted in a fixed ratio and multiple ratios were analyzed. The drug serial dilutions spanned a range of concentrations near the EC50 value of each compound, so that equivalent antiviral activities could be compared. Concentration-response curves were estimated for each individual drug and every combination using the median-effect equation. The equation was fit using a nonlinear regression routine (Proc Nlin) in PC SAS version 8.01 (SAS Institute Inc., SAS Version 8.01, Cary, NC: SAS Institute Inc., 1990).
(§3) In this equation, Fa stands for “fraction affected,” and represents the fraction of the viral load that has been inactivated. […] ED50 is drug concentration that is expected to reduce the amount of virus by 50%, and m is a parameter that reflects the slope of the concentration-response curve.
To assess antiviral effects of different drug combination treatments, combination indices (CIs) were calculated according to Chou and Rideout. The combination index was computed as CI=[D]1/[Dm]1+[D]2/[Dm]2
In this equation [Dm]1 and [Dm]2 are the concentrations of drugs that would individually produce a specific level of effect, while [D]1 and [D]2 are the concentrations of drugs in combination that would produce the same level of effect.
Theoretically, additivity is implied if the CI is equal to one, synergy if the CI is less than one, and antagonism if the CI is greater than one. […] At best, we can construct a range that contains the likely values for the CI, given the noise in the data. In this report, these ranges are reported in parentheses next to each point estimate of the CI. […] If the range fell entirely above 1.0, we would infer antagonistic behavior. If the range were to include 1.0, we would infer additivity.

HIV-1 LAI [2] = test: microbe, parasite or virus in culture; conditions: Human immunodeficiency virus 1, MT2, 120 h
Method: as §1, §2, §3
In carrying out the combination experiments below, the EC50 for Compound 1 and each comparator compound was determined during the course of each study, and used in the subsequent data analysis.

[3] = EC50 ratio 1:1 (Compound 1 to comparator)
[4] = EC50 ratio 1:2.5 (Compound 1 to comparator)
[5] = EC50 ratio 2.5:1 (Compound 1 to comparator)

Structure (SMILES) | Combination Indices at 50% HIV Inhibition (Confidence Interval) (HIV-1 LAI [1]; [3]) | Combination Indices at 75% HIV Inhibition (Confidence Interval) (HIV-1 LAI [1]; [3]) | Combination Indices at 90% HIV Inhibition (Confidence Interval) (HIV-1 LAI [1]; [3]) | Combination Indices at 50% HIV Inhibition (Confidence Interval) (HIV-1 LAI [1]; [4]) | Combination Indices at 75% HIV Inhibition (Confidence Interval) (HIV-1 LAI [1]; [4]) | Combination Indices at 90% HIV Inhibition (Confidence Interval) (HIV-1 LAI [1]; [4]) | Combination Indices at 50% HIV Inhibition (Confidence Interval) (HIV-1 LAI [1]; [5]) | Combination Indices at 75% HIV Inhibition (Confidence Interval) (HIV-1 LAI [1]; [5]) | Combination Indices at 90% HIV Inhibition (Confidence Interval) (HIV-1 LAI [1]; [5]) | Overall Result of two-drug combination (HIV-1 LAI [1]) | pEC50 (HIV-1 LAI [2]) | Overall Result of two-drug combination (HIV-1 LAI [1]; listed as delavirdine) | Overall Result of two-drug combination (HIV-1 LAI [1]; listed as efavirenz)
Cc1c(O)cccc1C(=O)N[C@@H](CSc1ccccc1)[C@H](O)CN1C[C@H]2CCCC[C@H]2C[C@H]1C(=O)NC(C)(C)C [Nelfinavir] | 0.38 (6.31, 0.46) | 0.56 (0.47, 0.72) | 0.83 (0.47, 1.18) | 0.56 (0.46, 0.65) | 0.89 (0.68, 1.10) | 1.43 (0.89, 1.97) | 0.17 (0.13, 0.21) | 0.40 (0.29, 0.52) | 0.95 (0.49, 1.42) | Additive- | 8.22 |  | 
CC(C)c1nc(CN(C)C(=O)N[C@H](C(=O)N[C@@H](Cc2ccccc2)C[C@H](O)[C@H](Cc2ccccc2)NC(=O)OCc2cncs2)C(C)C)cs1 [Ritonavir] | 0.25 (0.19, 0.31) | 0.38 (0.26, 0.50) | 0.58 (0.28, 0.88) | 0.16 (0.12, 0.20) | 0.25 (0.18, 0.32) | 0.40 (0.19, 0.60) | 0.40 (0.23, 0.57) | 0.66 (0.29, 1.04) | 1.11 (0.05, 2.17) | Additive- | 8.30 |  | 
CC(C)(C)NC(=O)[C@@H]1CN(Cc2cccnc2)CCN1C[C@@H](O)C[C@@H](Cc1ccccc1)C(=O)N[C@H]1c2ccccc2C[C@H]1O [Indinavir] | 0.73 (0.58, 0.88) | 0.75 (0.54, 0.97) | 0.77 (0.42, 1.12) | 0.42 (0.22, 0.63) | 0.57 (0.20, 0.95) | 0.78 (0.00, 1.64) | 0.56 (0.43, 0.69) | 0.67 (0.45, 0.89) | 0.81 (0.38, 1.23) | Moderate- | 9.00 |  | 
CC(C)Nc1cccnc1N1CCN(C(=O)c2cc3cc(NS(C)(=O)=O)ccc3[nH]2)CC1 [Delavirdine] | 0.79 (0.55, 1.03) | 0.59 (0.35, 0.84) | 0.45 (0.16, 0.73) | 0.99 (0.72, 1.26) | 0.90 (0.56, 1.23) | 0.81 (0.34, 1.29) | 0.56 (0.28, 0.84) | 0.51 (0.16, 0.86) | 0.45 (0.00, 0.95) | Additive- | 7.00 | additive to synergistic | 
CC(C)CN(C[C@@H](O)[C@H](Cc1ccccc1)NC(=O)O[C@H]1CCOC1)S(=O)(=O)c1ccc(N)cc1 [Amprenavir] | 0.47 (0.33, 0.62) | 0.76 (0.44, 1.09) | 1.37 (6.46, 2.28) | 0.63 (0.45, 0.81) | 0.72 (0.44, 1.01) | 0.99 (0.38, 1.60) | 0.20 (0.12, 0.28) | 0.60 (0.28, 0.92) | 1.87 (0.24, 3.50) | Additive- | 7.46 |  | 
Nc1nc(=O)n([C@@H]2CS[C@H](CO)O2)cc1F [Emtricitabine] | 0.56 (0.49, 0.62) | 0.39 (0.34, 0.45) | 0.28 (0.22, 0.33) | 0.45 (0.38, 0.51) | 0.62 (0.50, 0.74) | 0.86 (0.59, 1.14) | 0.22 (0.20, 0.24) | 0.32 (0.28, 0.37) | 0.48 (0.38, 0.58) | Synergistic | 7.44 |  | 
O=C1Nc2ccc(Cl)cc2[C@@](C#CC2CC2)(C(F)(F)F)O1 [Efavirenz] | 0.93 (0.74, 1.12) | 0.70 (0.51, 0.90) | 0.57 (0.32, 0.82) | 0.71 (0.58, 0.85) | 0.85 (0.62, 1.08) | 1.10 (0.64, 1.56) | 0.82 (0.62, 1.02) | 0.83 (0.55, 1.12) | 0.89 (0.41, 1.36) | Additive- | 9.22 |  | additive to synergistic
O=c1[nH]cnc2c1ncn2[C@H]1CC[C@@H](CO)O1 [Didanosine] | 0.91 (0.74, 1.09) | 0.88 (0.65, 1.11) | 0.88 (0.52, 1.24) | 0.22 (0.19, 0.25) | 0.18 (0.14, 0.22) | 0.16 (0.10, 0.21) | 1.02 (0.83, 1.22) | 0.96 (0.70, 1.21) | 0.91 (0.53, 1.29) | Additive- | 6.19 |  | 
